Measured values published in patent US20180298010A1, “PRMT5 INHIBITORS AND USES THEREOF” (Epizyme, Inc., priority 2012, published 2018).

Molecular target: T1, PRMT5/MEP50 (Homo sapiens, UniProt O14744)
T1 construct: Flag-PRMT5; 6His-MEP50
Experiment: PRMT5 Biochemical Assay (PRMT5/MEP50 enzyme assay on peptide substrate, 3H-SAM Flashplate)
From the text: General Materials. S-adenosylmethionine (SAM), S-adenosylhomocysteine (SAH), bicine, KCl, Tween20, dimethylsulfoxide (DMSO), bovine skin gelatin (BSG), and Tris(2-carboxyethyl)phosphine hydrochloride solution (TCEP) were purchased from Sigma-Aldrich at the highest level of purity possible. ^3H-SAM was purchase from American Radiolabeled Chemicals with a specific activity of 80 Ci/mmol. 384-well streptavidin Flashplates were purchased from PerkinElmer.
Substrates. Peptide representative of human histone H4 residues 1-15 was synthesized with a C-terminal linker-affinity tag motif and a C-terminal amide cap by 21st Century Biochemicals. The peptide was high high-perfomance liquid chromatography (HPLC) purified to greater than 95% purity and confirmed by liquid chromatography mass spectrometry (LC-MS). The sequence was Ac-[…][K-Biot]-amide (SEQ ID NO.:3).
Molecular Biology: Full-length human PRMT5 (NM_006109.3) transcript variant 1 clone was amplified from a fetal brain cDNA library, incorporating flanking 5′ sequence encoding a FLAG tag ([…]) (SEQ ID NO.:4) fused directly to Ala 2 of PRMT5. Full-length human MEP50 (NM_024102) clone was amplified from a human testis cDNA library incorporating a 5′ sequence encoding a 6-histidine tag (MHHHHHH) (SEQ ID NO.:5) fused directly to Arg 2 of MEP50. The amplified genes were sublconed into pENTR/D/TEV (Life Technologies) and subsequently transferred by Gateway™ attL×attR recombination to pDEST8 baculvirus expression vector (Life Technologies).
Protein Expression. Recombinant baculovirus and Baculovirus-Infected Insect Cells (BIIC) were generated according to Bac-to-Bac kit instructions (Life Technologies) and Wasilko, 2006, respectively. Protein over-expression was accomplished by infecting exponentially growing Spodoptera frugiperda (SF9) cell culture at 1.2×10^6cell/ml with a 5000 fold dilution of BIIC stock. Infections were carried out at 27° C. for 72 hours, harvested by centrifugation, and stored at −80° C. for purification.
Protein Purification. […] Flag-PRMT5/6His-MeP50 was eluted with 300 mM Imidazole in the same buffer. The purity of recovered protein was 87%. Reference: Wasilko, D. J. and S. E. Lee: “TIPS: titerless infected-cells preservation and scale-up” Bioprocess J., 5 (2006), pp. 29-32.
General Procedure for PRMT5/MEP50 Enzyme Assays on Peptide Substrates. The assays were all performed in a buffer consisting of 20 mM Bicine (pH=7.6), 1 mM TCEP, 0.005% BSG, and 0.002% Tween20, prepared on the day of use. Compounds in 100% DMSO (1 ul) were spotted into a polypropylene 384-well V-bottom plates (Greiner) using a Platemate Plus outfitted with a 384-channel head (Thermo Scientific). DMSO (1 ul) was added to Columns 11, 12, 23, 24, rows A-H for the maximum signal control and 1 ul of SAH, a known product and inhibitor of PRMT5/MEP50, was added to columns 11, 12, 23, 24, rows I-P for the minimum signal control. A cocktail (40 ul) containing the PRMT5/MEP50 enzyme and the peptide was added by Multidrop Combi (Thermo-Fisher). The compounds were allowed to incubate with PRMT5/MEP50 for 30 min at 25 degrees Celsius, then a cocktail (10 ul) containing ^3H-SAM was added to initiate the reaction (final volume=51 ul). The final concentrations of the components were as follows: PRMT5/MEP50 was 4 nM, ^3H-SAM was 75 nM, peptide was 40 nM, SAH in the minimum signal control wells was 100 uM, and the DMSO concentration was […]. The assays were stopped by the addition of non-radioactive SAM (10 ul) to a final concentration of 600 uM, which dilutes the ^3H-SAM to a level where its incorporation into the peptide substrate is no longer detectable. 50 ul of the reaction in the 384-well polypropylene plate was then transferred to a 384-well Flashplate and the biotinylated peptides were allowed to bind to the streptavidin surface for at least 1 hour before being washed three times with 0.1% Tween20 in a Biotek ELx405 plate washer. […]

T1 sequence (O14744 with tags, fused parts or gaps): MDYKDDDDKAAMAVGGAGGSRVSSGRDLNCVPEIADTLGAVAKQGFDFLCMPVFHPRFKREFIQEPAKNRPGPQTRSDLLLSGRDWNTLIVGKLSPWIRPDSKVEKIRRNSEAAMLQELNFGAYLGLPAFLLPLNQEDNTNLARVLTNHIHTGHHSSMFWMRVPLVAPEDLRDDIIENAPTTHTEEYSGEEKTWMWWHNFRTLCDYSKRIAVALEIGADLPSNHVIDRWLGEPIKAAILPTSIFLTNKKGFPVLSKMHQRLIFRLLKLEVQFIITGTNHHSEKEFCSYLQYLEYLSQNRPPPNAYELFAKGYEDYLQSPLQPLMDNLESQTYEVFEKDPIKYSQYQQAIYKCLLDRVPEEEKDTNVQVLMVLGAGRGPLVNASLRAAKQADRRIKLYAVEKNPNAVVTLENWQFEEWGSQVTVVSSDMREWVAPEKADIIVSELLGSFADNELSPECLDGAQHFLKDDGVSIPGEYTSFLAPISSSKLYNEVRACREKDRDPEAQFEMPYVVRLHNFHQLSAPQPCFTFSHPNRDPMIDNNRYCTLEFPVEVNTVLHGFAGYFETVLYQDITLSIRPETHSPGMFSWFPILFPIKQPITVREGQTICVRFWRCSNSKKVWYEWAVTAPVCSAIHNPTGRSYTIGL
T1 sequence (Q9BQA1 with tags, fused parts or gaps partner): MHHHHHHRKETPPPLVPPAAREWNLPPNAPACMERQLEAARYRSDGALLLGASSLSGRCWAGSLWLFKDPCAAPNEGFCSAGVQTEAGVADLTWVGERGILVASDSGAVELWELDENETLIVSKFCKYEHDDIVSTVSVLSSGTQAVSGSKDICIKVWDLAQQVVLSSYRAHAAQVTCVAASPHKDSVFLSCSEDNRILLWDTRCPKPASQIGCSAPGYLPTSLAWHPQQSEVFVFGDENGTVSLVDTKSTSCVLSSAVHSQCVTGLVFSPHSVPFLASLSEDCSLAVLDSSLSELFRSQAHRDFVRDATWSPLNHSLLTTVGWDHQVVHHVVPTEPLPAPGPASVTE

SMILES	IC50 [nM]
OC(COc1cccc(CNC2CCCC2)c1)CN1CCc2ccccc2C1 (centres unmarked) [Compound 1]	101 to 1000
OC(COC1CCCN(c2ccccc2)C1)CN1CCc2ccccc2C1 (centres unmarked) [Compound 2]	1000 to 10000
OC(COc1ccc(OCC(O)CN2CCc3ccccc3C2)cc1)CN1CCc2ccccc2C1 (centres unmarked) [Compound 3]	101 to 1000
OC(COc1cccc(CNC2CCCCC2)c1)CN1CCc2ccccc2C1 (centres unmarked) [Compound 4]	101 to 1000
OC(COc1cccc(CNC2CCOCC2)c1)CN1CCc2ccccc2C1 (centres unmarked) [Compound 5, 1-(3,4-dihydroisoquinolin-2(1H)-yl)-3-(3-(((tetrahydro-2H-pyran-4-yl)amino)methyl)phenoxy)propan-2-ol]	101 to 1000
OC(COc1cccc(CNc2cc[nH]n2)c1)CN1CCc2ccccc2C1 (centres unmarked) [Compound 6, 1-(3-(((1H-pyrazol-3-yl)amino)methyl)phenoxy)-3-(3,4-dihydroisoquinolin-2(1H)-yl)propan-2-ol]	101 to 1000
OC(COc1ccccc1N1CCNCC1)CN1CCc2ccccc2C1 (centres unmarked) [Compound 7]	10000 to 40000
OC(COc1ccccc1C1CCCCC1)CN1CCc2ccccc2C1 (centres unmarked) [Compound 8]	1000 to 10000
OC(COc1ccc(-n2cncn2)cc1)CN1CCc2ccccc2C1 (centres unmarked) [Compound 9]	1000 to 10000
OC(COc1ccc(Cc2ccccc2)cc1)CN1CCc2ccccc2C1 (centres unmarked) [Compound 10]	101 to 1000
OC(COCc1cc(-c2ccc(Cl)cc2)no1)CN1CCc2ccccc2C1 (centres unmarked) [Compound 11]	101 to 1000
OC(COCc1ccc(OCc2ccccc2)cc1)CN1CCc2ccccc2C1 (centres unmarked) [Compound 12]	1000 to 10000
OC(COc1cccc(CNC2CCNCC2)c1)CN1CCc2ccccc2C1 (centres unmarked) [Compound 13]	1000 to 10000
OC(COc1cccc(CN2CCCCC2)c1)CN1CCc2ccccc2C1 (centres unmarked) [Compound 14]	1000 to 10000
OC(COc1cccc2ccc(N3CCOCC3)nc12)CN1CCc2ccccc2C1 (centres unmarked) [Compound 15]	1000 to 10000
OC(COc1ccccc1-c1ccno1)CN1CCc2ccccc2C1 (centres unmarked) [Compound 16]	1000 to 10000
Cc1cc(OCC(O)CN2CCc3ccccc3C2)c(C)cc1CN1CCOCC1 (centres unmarked) [Compound 17]	101 to 1000
O=S1(=O)CCN(c2ccc(OCC(O)CN3CCc4ccccc4C3)cc2)CC1 (centres unmarked) [Compound 18]	1000 to 10000
OC(COc1ccc(OCc2ccccc2)cc1)CN1CCc2ccccc2C1 (centres unmarked) [Compound 19]	1000 to 10000

SMILES	IC50 [nM]
OC(COc1cccc(OCc2ccccc2)c1)CN1CCc2ccccc2C1 (centres unmarked) [Compound 20]	1000 to 10000
OC(COC1CCN(Cc2ccccc2)CC1)CN1CCc2ccccc2C1 (centres unmarked) [Compound 21]	1000 to 10000
CN(Cc1ccc(OCC(O)CN2CCc3ccccc3C2)cc1)C1CCCC1 (centres unmarked) [Compound 24]	1000 to 10000
OC(COc1ccc(C2CCNCC2)cc1)CN1CCc2ccccc2C1 (centres unmarked) [Compound 25]	1000 to 10000
CC(C)n1nccc1-c1ccc(OCC(O)CN2CCc3ccccc3C2)cc1 (centres unmarked) [Compound 26]	10000 to 40000
CC(C)n1ccc(-c2ccc(OCC(O)CN3CCc4ccccc4C3)cc2)n1 (centres unmarked) [Compound 27]	1000 to 10000
Cc1nn(-c2ccccc2)c(C)c1COCC(O)CN1CCc2ccccc2C1 (centres unmarked) [Compound 28]	1000 to 10000
COc1cccc2c1CN(CC(O)COc1cccc(CNC3CCCC3)c1)CC2 (centres unmarked) [Compound 29]	10000 to 40000
O=C(c1ccc(Cn2nccc2-c2ccc(OCC(O)CN3CCc4ccccc4C3)cc2)cc1)N1CCCC1 (centres unmarked) [Compound 31, (4-((5-(4-(3-(3,4-dihydroisoquinolin-2(1H)-yl)-2-hydroxypropoxy)phenyl)-1H-pyrazol-1-yl)methyl)phenyl)(pyrrolidin-1-yl)methanone]	101 to 1000
COC(COc1cccc(CNC2CCCC2)c1)CN1CCc2ccccc2C1 (centres unmarked) [Compound 32]	1000 to 10000
CC(C(O)COc1cccc(CNC2CCCC2)c1)N1CCc2ccccc2C1 (centres unmarked) [Compound 33]	1000 to 10000
O=C(c1ccc(Cn2ccc(-c3ccc(OCC(O)CN4CCc5ccccc5C4)cc3)n2)cc1)N1CCCC1 (centres unmarked) [Compound 34]	1000 to 10000
OC(COC1CCN(Cc2ccccc2)C1)CN1CCc2ccccc2C1 (centres unmarked) [Compound 35]	1000 to 10000
OC(CCc1cccc(CNC2CCCC2)c1)CN1CCc2ccccc2C1 (centres unmarked) [Compound 36]	10000 to 40000
OC(CNc1cccc(CNC2CCCC2)c1)CN1CCc2ccccc2C1 (centres unmarked) [Compound 39, 1-((3-((cyclopentylamino)methyl)phenyl)amino)-3-(3,4-dihydroisoquinolin-2(1H)-yl)propan-2-ol]	101 to 1000
OC(COc1cccc(-c2cccnc2)c1)CN1CCc2ccccc2C1 (centres unmarked) [Compound 40]	1000 to 10000
OC(COc1cccc(-c2ccccc2)c1)CN1CCc2ccccc2C1 (centres unmarked) [Compound 43, 1-([1,1′-biphenyl]-3-yloxy)-3-(3,4-dihydroisoquinolin-2(1H)-yl) propan-2-ol]	101 to 1000
Cn1cc(-c2cccc(OCC(O)CN3CCc4ccccc4C3)c2)cn1 (centres unmarked) [Compound 44]	1000 to 10000
OC(COCc1ccc(CN2CCOCC2)cc1)CN1CCc2ccccc2C1 (centres unmarked) [Compound 46]	1000 to 10000

SMILES	IC50 [nM]
OC(COc1ccc(-c2ccn[nH]2)cc1)CN1CCc2ccccc2C1 (centres unmarked) [Compound 48]	1000 to 10000
CC(Oc1cccc(CNC2CCCC2)c1)C(O)CN1CCc2ccccc2C1 (centres unmarked) [Compound 49]	101 to 1000
CC1c2ccccc2CCN1CC(O)COc1cccc(CNC2CCCC2)c1 (centres unmarked) [Compound 50]	1000 to 10000
OC(COc1cccc(C2CCCCC2)c1)CN1CCc2ccccc2C1 (centres unmarked) [Compound 52]	1000 to 10000
CN(CC(O)CN1CCc2ccccc2C1)c1cccc(CNC2CCCC2)c1 (centres unmarked) [Compound 53]	101 to 1000
OC(COc1cccc(-c2cccc(Oc3ccccc3)c2)c1)CN1CCc2ccccc2C1 (centres unmarked) [Compound 55]	1000 to 10000
OC(COc1cccc(C2=CCCCC2)c1)CN1CCc2ccccc2C1 (centres unmarked) [Compound 57]	1000 to 10000
Cn1cnc2cc(-c3cccc(OCC(O)CN4CCc5ccccc5C4)c3)ccc21 (centres unmarked) [Compound 60, 1-(3,4-dihydroisoquinolin-2(1H)-yl)-3-(3-(1-methyl-1H-benzo[d]imidazol-5-yl)phenoxy)propan-2-ol]	101 to 1000
OC(COc1cccc(-c2cc(C(F)(F)F)ccc2Cl)c1)CN1CCc2ccccc2C1 (centres unmarked) [Compound 62, 1-((2′-chloro-5′-(trifluoromethyl)-[1,1′-biphenyl]-3-yl)oxy)-3-(3,4-dihydroisoquinolin-2(1H)-yl)propan-2-ol]	101 to 1000
CS(=O)(=O)c1ccc(-c2cccc(OCC(O)CN3CCc4ccccc4C3)c2)cc1 (centres unmarked) [Compound 63]	101 to 1000
COc1ccc(Cl)c(-c2cccc(OCC(O)CN3CCc4ccccc4C3)c2)c1 (centres unmarked) [Compound 64]	1000 to 10000
Cn1cnc2ccc(N3CCCC(OCC(O)CN4CCc5ccccc5C4)C3)cc21 (centres unmarked) [Compound 66]	101 to 1000
CC(=O)c1cccc(-c2cccc(OCC(O)CN3CCc4ccccc4C3)c2)c1 (centres unmarked) [Compound 67]	101 to 1000
OC(COc1cccc(-c2ccc(Cl)cc2)c1)CN1CCc2ccccc2C1 (centres unmarked) [Compound 69]	1000 to 10000
Oc1ccc(-c2cccc(OCC(O)CN3CCc4ccccc4C3)c2)cc1F (centres unmarked) [Compound 70]	1000 to 10000
COc1ccccc1-c1cccc(OCC(O)CN2CCc3ccccc3C2)c1 (centres unmarked) [Compound 71]	1000 to 10000
OCc1cccc(-c2cccc(OCC(O)CN3CCc4ccccc4C3)c2)c1 (centres unmarked) [Compound 72, 1-(3,4-dihydroisoquinolin-2(1H)-yl)-3-((3′-(hydroxymethyl)-[1,1′-biphenyl]-3-yl)oxy)propan-2-ol]	101 to 1000
OCc1ccc(-c2cccc(OCC(O)CN3CCc4ccccc4C3)c2)cc1 (centres unmarked) [Compound 73]	1000 to 10000
